Here are results for six molecules from publication PMC8724172, “The effect of potent CYP2D6 inhibition on the pharmacokinetics and safety of deutetrabenazine in healthy volunteers” (European Journal of Clinical Pharmacology, 2021).

The nature of series [1]: Open-label sequential drug-drug interaction study: plasma pharmacokinetics of deutetrabenazine and its metabolites without and with steady-state paroxetine. On the set-up: AUC0−t lower by a factor in presence of paroxetine / Cmax lower by a factor in presence of paroxetine: unit not given beside the values. The following applies: for % Ratio of LS means (90% CI) (day 11)/(day 1), AUC0−t / % Ratio of LS means (90% CI) (day 11)/(day 1), AUC0−∞ / % Ratio of LS means (90% CI) (day 11)/(day 1), Cmax: deutetrabenazine + paroxetine vs deutetrabenazine alone. The text has this:
This was an open-label sequential drug-drug interaction study in 24 healthy adult subjects who were CYP2D6 extensive metabolizers (EM) or CYP2D6 intermediate metabolizers (IM); Supplemental Table S1 provides the genotypes and phenotypes of the subjects.
Subjects checked into the clinic on day 1 and were confined through day 14. […] Those who met inclusion/exclusion criteria received a single dose of deutetrabenazine on day 1 followed by a 72-h washout. Subjects then received paroxetine on days 4 to 12 to achieve steady-state plasma concentrations of paroxetine by day 11. On day 11, another single dose of deutetrabenazine was administered. Triplicate 12-lead digital electrocardiograms (ECGs) were collected predose and for 10 h following deutetrabenazine dosing on day 1, and for 10 h on day 11, following paroxetine administration on day 10. Blood samples for measurement of plasma concentrations of deutetrabenazine and its metabolites were obtained on days 1 and 11 (predose, 1, 2, 2.5, 3, 3.5, 4, 4.5, 5, 6, 7, 8, 10, 12, and 16 h), days 2 and 12, at 24 and 36 h, days 3 and 13, at 48 and 60 h and days 4 and 14, at 72 h. Paroxetine trough levels were obtained pre-dose on days 9, 10, 11, and 12, and on day 13 at 24 h post the final paroxetine dose on day 12. Blood and urine samples were collected for clinical laboratory testing (hematology, serum chemistries, and urinalysis) at admission and after at least 10 h fasting and at study completion on day 14 or upon early withdrawal.
All participants received the following treatments, deutetrabenazine 22.5-mg oral dose as one 15-mg tablet + one 7.5-mg tablet on days 1 and 11 and one paroxetine 20 mg (Cadila Healthcare Ltd.) oral tablet on days 4 through 12. The deutetrabenazine 22.5-mg dose was administered with 237 mL of water in the morning approximately 30 min after a standardized breakfast meal with moderate fat content (35%). No food was allowed for at least 4 h postdose, and subjects were asked to remain upright for at least 4 h postdose, unless medically necessary.
Paroxetine 20 mg was administered in the morning with 237 mL water for 9 days (days 4 to 12) to ensure steady-state levels. On days 4 to 10 and 12, the paroxetine dose was administered in a fed state 30 min after breakfast. On day 11, as paroxetine can be administered without regard to food, subjects took the paroxetine dose under fasting conditions (at least 1 h prior to breakfast and 1.5 h prior to deutetrabenazine administration) following an overnight fast of at least 10 h. Subjects were asked to remain upright for at least 1 h after the paroxetine dose, unless medically necessary.
Validated liquid chromatography/tandem mass spectrometry methods were applied to assess plasma concentrations of paroxetine, deutetrabenazine, α- and β-HTBZ metabolites, and the O-desmethyl metabolites of α- and β-HTBZ. This was performed on a Sciex API 4000 instrument, equipped with a Turbo Ion Spray ion source operated in the positive ion mode and interfaced to a Shimadzu HPLC system fitted with a Waters XBridge C18 reverse phase column (3.5 µm; 50 × 2.1 mm) for paroxetine, deutetrabenazine, α-HTBZ and β-HTBZ or a Phenomenex Kinetex column (2.6 µm; 100 × 2.1 mm) for the O-desmethyl metabolites. The validated assay ranges were as follows: paroxetine 0.500 to 50.0 ng/mL, deutetrabenazine 0.100 to 10.0 ng/mL, deuterated α- and β-HTBZ 0.500 to 100 ng/mL, and 9-O- and 10-O-desmethyl metabolites of α-HTBZ and β-HTBZ 0.5 to 50.0 ng/mL. The methods were developed and validated by CPR Pharma Services, Pty, Ltd Australia, as described earlier.
Plasma concentrations, below the limit of quantitation (BLQ) of the assay, were designated a value of zero for initial and time points occurring at the end of the profile. For sampling time points between two quantifiable concentrations, plasma concentrations BLQ followed by a measurable concentration were set to the limit of quantitation of the assay.

The nature of series [2]: Safety assessments (adverse events, ECG, C-SSRS) in the drug-drug interaction study. Here is the method: Subjects checked into the clinic on day 1 and were confined through day 14. […] Subjects then received paroxetine on days 4 to 12 to achieve steady-state plasma concentrations of paroxetine by day 11. On day 11, another single dose of deutetrabenazine was administered. Triplicate 12-lead digital electrocardiograms (ECGs) were collected predose and for 10 h following deutetrabenazine dosing on day 1, and for 10 h on day 11, following paroxetine administration on day 10. […] Blood and urine samples were collected for clinical laboratory testing (hematology, serum chemistries, and urinalysis) at admission and after at least 10 h fasting and at study completion on day 14 or upon early withdrawal.

For series [3] the following is noted: cited from earlier work.
Setting [4] is: adverse events by treatment period, 24 subjects dosed.
The mark [5] stands for this setting: Subjects with EM phenotype (n = 15).
Setting [6] is: Subjects with IM phenotype (n = 8).
[7] abbreviates: population of 15 EM and 8 IM, deutetrabenazine 22.5 mg, steady-state paroxetine 20 mg daily vs alone.

Consider `COc1cc2c(cc1O)CCN1C[C@@H](CC(C)C)[C@H](O)C[C@H]21` [9-O-desmethyl α-HTBZ], for which, in series [1] (human, in vivo), the Cmax was 1.4 (18) ng/mL. For the same molecule, in series [1] (human, in vivo, im), the AUC0-t was 13.8 (65) ng × h/mL, the Cmax is 1.2 (45) ng/mL and the Tmax is listed as 5.5 (3.5–12.0) h. The Cmax in series [1] (human, in vivo, po, 22.5 mg) is on record as 1.3 (28) ng/mL. Further, in series [1] (in vivo), the “AUC0−t lower by a factor in presence of paroxetine” value is recorded as 0.3 and the “Cmax lower by a factor in presence of paroxetine” value is on record as 0.4.
With `COc1cc2c(cc1O)CCN1C[C@@H](CC(C)C)[C@@H](O)C[C@H]21` [9-O-desmethyl β-HTBZ], the Cmax in series [1] (human, in vivo) is 4.5 (20) ng/mL. Moreover, in series [1] (human, in vivo, im), the AUC0-t is on record as 105 (33) ng × h/mL, the Cmax is listed as 4.2 (45) ng/mL, the Tmax was 7.0 (4.0–24.0) h and the t1/2 is recorded as 16.8 (13) (n = 7) h. Moreover, the Cmax in series [1] (human, in vivo, po, 22.5 mg) was 4.4 (29) ng/mL. In addition, in series [1] (in vivo), the “AUC0−t lower by a factor in presence of paroxetine” value was determined as 0.7 and the “Cmax lower by a factor in presence of paroxetine” value came to 0.4.
Turning to `COc1cc2c(cc1O)[C@H]1C[C@H](O)[C@H](CC(C)C)CN1CC2` [10-O-desmethyl β-HTBZ], the “Quantifiability of plasma concentrations” value in series [1] (in vivo) is “appeared transiently in some subjects”.
In the case of `[2H]C([2H])([2H])Oc1cc2c(cc1OC([2H])([2H])[2H])C1CC(=O)C(CC(C)C)CN1CC2` (stereo not shown) [Deutetrabenazine], the “Mean plasma concentrations in the presence and absence of paroxetine” value in series [1] (deutetrabenazine 22.5 mg oral, day 11 vs day 1) is on record as “comparable”. Moreover, in series [1] (human, in vivo), the Cmax was 0.3 (44) ng/mL and the Tmax is given as 3.5 (1.0–6.0) h. For the same molecule, in series [1] (human, in vivo, im), the AUC0-t is reported as 1.0 (55) ng × h/mL, the Cmax is 0.5 (66) ng/mL and the Tmax is recorded as 3.5 (1.0–6.0) h. In addition, the Cmax in series [1] (human, in vivo, po, 22.5 mg) is listed as 0.4 (60) ng/mL. Also, in series [2] (setting [4]), the Back pain is given as 0 (0%) n (%), the Chest discomfort was 0 (0%) n (%), the Decreased appetite is given as 0 (0%) n (%) and the Dizziness was 1 (4%) n (%). For the same molecule, in series [2] (setting [4]), the Feeling abnormal is listed as 0 (0%) n (%); the Feeling hot is reported as 0 (0%) n (%); the “Gastrointestinal Disorders” value was 0 (0%) n (%); the “General Disorders and Administration Site Conditions” value was 0 (0%) n (%). Besides, in series [2] (setting [4]), the Gingival pain is 0 (0%) n (%), the Headache is 0 (0%) n (%), the Hypoaethesia oral was 0 (%) n (%) and the Local swelling is on record as 0 (0%) n (%). In addition, in series [2] (setting [4]), the “Metabolism and Nutritional disorders” value is 0 (0%) n (%); the Muscle tightness is 0 (0%) n (%); the “Musculoskeletal and Connective Tissue Disorders” value is recorded as 0 (0%) n (%); the Nausea is 0 (0%) n (%). Besides, in series [2] (setting [4]), the “Nervous System Disorders” value is 1 (4%) n (%), the Paraesthesia oral is on record as 0 (0%) n (%), the “Sensation of foreign body” value is 0 (0%) n (%) and the Sensation of heaviness was 0 (0%) n (%). Also, in series [2] (setting [4]), the Swollen tongue is 0 (0%) n (%) and the Vomiting is given as 0 (0%) n (%). The “Subjects with AEs, n (%)” value in series [2] (by treatment period, 24 subjects dosed) was 3 (13%) n (%). For the same molecule, in series [2] (in vivo), the “Infections and Infestations” value is 0 (0%) n (%); the “Viral Infections” value is recorded as 0 (0%) n (%). Also, in series [2] (single doses of 22.5 mg, alone or in the presence of steady-state paroxetine (20 mg daily), healthy subjects), the Safety and tolerability result is “safe and generally well tolerated”.
For `Fc1ccc([C@@H]2CCNC[C@H]2COc2ccc3c(c2)OCO3)cc1` [Paroxetine, reference compound], the “Steady-state exposure (mean trough plasma concentrations, visual inspection)” value in series [1] (paroxetine 20 mg oral daily on days 4–12) is “achieved on day 10”. For the same molecule, in series [2] (setting [4]), the Back pain is 1 (4%) n (%), the Chest discomfort is reported as 1 (4%) n (%), the Decreased appetite is given as 3 (13%) n (%) and the Dizziness is given as 1 (4%) n (%). Besides, in series [2] (setting [4]), the Feeling abnormal is listed as 1 (4%) n (%); the Feeling hot is recorded as 1 (4%) n (%); the “Gastrointestinal Disorders” value is given as 5 (21%) n (%); the “General Disorders and Administration Site Conditions” value was 5 (21%) n (%). In addition, in series [2] (setting [4]), the Gingival pain is 1 (4%) n (%); the Headache is 5 (21%) n (%); the Hypoaethesia oral is 1 (4%) n (%); the “Infections and Infestations” value is recorded as 1 (4%) n (%). Besides, in series [2] (setting [4]), the Local swelling was 1 (4%) n (%); the “Metabolism and Nutritional disorders” value is listed as 3 (13%) n (%); the Muscle tightness is 1 (4%) n (%); the “Nervous System Disorders” value is listed as 7 (29%) n (%). In series [2] (setting [4]), the Paraesthesia oral is recorded as 1 (4%) n (%), the “Sensation of foreign body” value was 1 (4%) n (%), the Sensation of heaviness is reported as 0 (0%) n (%) and the “Viral Infections” value was 1 (4%) n (%). For the same molecule, in series [2] (most common AE, reported 8 times by 7 subjects overall), the “Headache, subjects reporting” value was found to be 5 subjects.
`COc1cc2c(cc1OC)[C@@H]1C[C@H](O)[C@@H](CC(C)C)CN1CC2` [α-HTBZ]: in series [1] (All subjects (n = 23)), the “% Ratio of LS means (90% CI) (day 11)/(day 1), AUC0−t” value (“% Ratio of LS means (90% CI) … AUC0−t” below) is 163.3 (148.3–179.8) %; the “% Ratio of LS means (90% CI) (day 11)/(day 1), AUC0−∞” value (“% Ratio of LS means (90% CI) … AUC0−∞” for short) is listed as 169.8 (153.8–187.5) %; the “% Ratio of LS means (90% CI) (day 11)/(day 1), Cmax” value (from here on “% Ratio of LS means (90% CI) … Cmax”) is 106.3 (90.0–125.4) %. Moreover, in series [1] (setting [5]), the “% Ratio of LS means (90% CI) … AUC0−t” value was 181.6 (162.4–302.0) %; the “% Ratio of LS means (90% CI) … AUC0−∞” value is given as 185.0 (165.8–206.4) %; the “% Ratio of LS means (90% CI) … Cmax” value is listed as 119.9 (108.1–132.9) %. Also, in series [1] (setting [6]), the “% Ratio of LS means (90% CI) … AUC0−t” value is recorded as 192.2 (162.9–226.8) %; the “% Ratio of LS means (90% CI) … AUC0−∞” value is reported as 193.6 (164.4–228.0) %; the “% Ratio of LS means (90% CI) … Cmax” value is 127.8 (111.8–146.1) %. For the same molecule, in series [1] (deutetrabenazine 22.5 mg, steady-state paroxetine vs alone), the “Increase of half-life (t1/2) in presence of paroxetine” value amounted to 1.5 fold. The Cmax in series [1] (human, in vivo) was 35.8 (21) ng/mL. Also, in series [1] (human, in vivo, im), the “AUC0–∞” value is 546 (22) ng × h/mL, the Cmax is recorded as 40.5 (22) ng/mL, the Tmax is given as 4.0 (2.0–7.0) h and the t1/2 was 13.0 (23) h. For the same molecule, the Cmax in series [1] (human, in vivo, po, 22.5 mg) was 37.4 (22) ng/mL. Besides, in series [1] (setting [7]), the “Increase of AUC0–∞ in presence of paroxetine” value is 1.8 fold and the “Increase of Cmax in presence of paroxetine” value amounted to 1.2 fold. For the same molecule, the “Increase in exposure with paroxetine” value in series [3] (after tetrabenazine administration) is listed as “threefold”. The “Increase of Cmax with paroxetine” value in series [3] (paroxetine administered with tetrabenazine) is 1.3 fold.
